Results on two compounds are retold here after EP4371586B1, “MULTIFUNCTIONAL CHITOSAN COMPOSITES FOR BONE DEFECT FILLING AND BONE TISSUE REGENERATION AND METHODS FOR OBTAINING THEM” (Siec Badawcza Lukasiewicz - Instytut Ceramiki i Materialow …, priority 2022, dated 2024).

Ends that are not written are not given here. Peptide text beside a SMILES is read from it.

In assay [1] the test system is Staphylococcus aureus PCM 2602. Put plainly: MIC by microdilution method (CLSI M07-A9). The format is cell-based. The following applies: 24 hours at 37 °C, BHI medium, range 3.125 - 250 µg/ml. The protocol: The antimicrobial properties of the peptide were tested based on Clinical and Laboratory Standards Institute (CLSI) guidelines according to CLSI M07-A9 2012 using the microdilution method. Two bacterial pathogens were used for the study: Gram-positive Staphylococcus aureus PCM 2602 and Gram-negative Pseudomonas aeruginosa PCM 2563.
The bacterial inoculum for the experiment was prepared by direct inoculation of Brain-Heart Infusion medium (BHI) with bacteria from a 24-hour culture on solid medium. The density of the suspension was 0.5 on the McFarland scale. The peptide concentration analysed : 3.125 - 250 µg/ml . Serial dilutions were performed in a 96-well, flat-bottomed, hydrophobic cell culture plate using BHI liquid medium. Then the previously prepared bacterial suspension was added. The final number of pathogens in each well was approximately 5 × 10^5 CFU/ml (Colony Forming Units per millilitre). Microplates were incubated for 24 hours at 37 °C under aerobic conditions. The minimum inhibitory concentration (MIC) for a peptide was defined as the lowest concentration of peptide in a well where no bacterial growth was observed. All experiments were performed in triplicate. Table 3. Minimum microbial growth inhibitory concentration values for peptide ug46 against the bacteria S. aureus PCM 2602 and P. aeruginosa PCM 2563.
Background: Broth dilution looks for growth in wells or tubes with falling amounts of substance.

Assay [2] has as its system hFOB human osteoblast cell line. Put plainly: WST-1 proliferation assay of peptides, indirect method per ISO 10993-5. The format is cell-based. The following applies: % of proliferation of control cells. As to the method: Cytotoxicity was tested by an indirect method based on the guidelines in ISO 10993- 5 on the hFOB human osteoblast cell line (ATCC) using the LDH assay (Roche). The results presented were averaged from two technical repeats and presented as % relative to control cells treated with 1% Triton X- 100 solution. proliferation was tested by an indirect method based on the guidelines in ISO 10993- 5 on the hFOB human osteoblast cell line (ATCC) using the WST-1 assay (Abcam). The results shown were averaged from two technical repeats and presented as % in relation to control cells cultured without added peptides.
Proliferation and cytotoxicity data were analysed and visualised using GraphPad Prism 8 software (GraphPad Software, USA). Statistical analysis was performed using the Kruskal- Wallis test (p = 0.05). In the next step, the Benjamini, Krieger and Yekutielli multiple comparisons test was performed to control the false discovery rate (p = 0.05). Comparisons were made between results obtained for individual peptide concentrations.
(In general: Tetrazolium dyes change colour on reduction, which living cells bring about.)

As to `CC[C@H](C)[C@H](NC(=O)CNC(=O)[C@H](C)NC(=O)[C@H](CCC(N)=O)NC(C)=O)C(=O)N[C@H](C(=O)N[C@H](C(=O)N1CCC[C@H]1C(=O)N[C@@H](CC(C)C)C(=O)NCC(=O)N[C@@H](CC(C)C)C(=O)NCC(=O)N[C@@H](CC(C)C)C(=O)N[C@@H](CC(C)C)C(=O)N[C@@H](CCCCN)C(=O)N[C@@H](CCCNC(=N)N)C(=O)N[C@H](C(=O)N[C@@H](CCCCN)C(=O)N[C@H](C(=O)N[C@@H](CC(C)C)C(=O)N[C@@H](CC(C)C)C(N)=O)[C@@H](C)O)[C@@H](C)CC)C(C)C)C(C)C` [ug46] (Ac-QAGIVVPLGLGLLKRIKTLL-NH2), in assay [1], the “Minimum inhibitory concentration of microorganisms (MIC) S. aureus PCM 2602” value was 100 µg/mL. For the compound “CPLGLYGFGG [ug4, engineered pro-regenerative peptide]”, the proliferation is on record as at least 70% in assay [2] (any ug1/ug4 peptide concentration (none lower)) and “above 100%” in assay [2] (most concentrations of ug1/ug4 peptide).
